Measurements reported in PMC6499206, “Quantification of Volatile Metabolites Derived From Garlic (Allium sativum) in Human Urine” (Frontiers in Nutrition, 2019).

Assay: Quantification of garlic-derived metabolites in human urine after ingestion of 3 g raw garlic (SIDA, SAFE, HRGC-MS / HRGC-GC-MS)
Format: in vivo
Conditions: 3 g raw garlic
Text: Human urine samples were obtained from 18 volunteers (age 22–38 years, mean 27 years; 11 females, 7 males); thereby, one volunteer conducted the whole experimental series twice. At the time of examination, volunteers reported no known illness that might have potentially influenced the metabolism or the excretion of urine. The test persons were instructed to avoid foods that were rich in sulfur-containing substances at the testing day as well as 2 days preceding the testing day, namely garlic, onion, wild garlic, chives, cabbage, and leek, and were only allowed to consume the garlic sample provided in the course of the experiments. Additionally, subjects were asked to keep records of the food (including food supplements) and beverages they consumed during these 3 testing days. Generally, the overall panelists' requirements were in accordance with our previous studies ([5], [16]).
On the sampling day, the outer garlic cloves of a whole garlic bulb were peeled and cut into ~3 mm cubes by using a garlic cutter (Genius GmbH, Limburg/Lahn, Germany). Subsequently these cubes were thoroughly mixed and aliquoted into 3 g portions. Three to four test persons conducted the experiment at the same day. Each test person was asked to ingest a garlic portion of 3 g. In total, eight consecutive urine samples were provided by each test person, comprising one whole urine set. The samples were collected in sterile brown glass bottles, with sampling times as follows: one sample was provided directly prior to garlic consumption. The series of the second to eighth sample was then obtained at about 0.5, 1, 2, 4, 6, 8, and 24 h after garlic consumption, respectively. Between the first urine sample (prior to garlic consumption) and the seventh urine sample (8 h after garlic consumption) test persons only spent urine at the specific time points mentioned before. Another sample was provided at the next morning (24 h after garlic consumption). Between the samples provided 8 and 24 h after garlic consumption no urine was collected. All samples were immediately placed into a −80°C freezer and were kept frozen until further analysis.
The samples of each set were termed according to their sampling time. The following list provides the time intervals that are related to the respective sample name: • - pre: before garlic consumption • - 0.5 h post: 0.4–0.8 h after garlic consumption • - 1 h post: 0.9–1.3 h after garlic consumption • - 2 h post: 1.8 h−2.2 h after garlic consumption • - 4 h post: 3.8–4.4 h after garlic consumption • - 6 h post: 5.8–6.4 h after garlic consumption • - 8 h post: 7.8–8.4 h after garlic consumption • - 24 h post: 23.8–25.6 h after garlic consumption
A creatinine kit (Labor+Technik Eberhard Lehmann GmbH, Berlin, Germany) was used to determine the creatinine content in each urine sample. The determination principle of this kit is based on the reaction of creatinine with picric acid under basic conditions (Jaffé reaction). The formed complex was detected photometrically at a wavelength of 492 nm.
For quantification purposes, the deuterated standards ^2H3-AMS, ^2H3-AMSO, and ^2H3-AMSO2 were added to the sample and stirred for 10 min. Subsequently, DCM was added in a ratio of 1:2 (DCM/human urine; v/v) and this solution was stirred for further 30 min at room temperature. To isolate the volatile fraction from the urine samples we then applied SAFE-distillation ([17]), thereby distilling the respective samples at 50°C. After completion of the distillation process, 10 mL of DCM were applied in each case to rinse the SAFE apparatus and to ensure complete transition of the volatile compounds. This process was repeated with another 10 mL of DCM. After thawing, the obtained aqueous distillate phase was extracted three times with 25 mL DCM. The organic phases were combined, dried over anhydrous Na2SO4 and concentrated to a total volume of 100 μL by means of Vigreux distillation and subsequent micro-distillation at 50°C. […]

Compound: C=CC[S+](C)[O-] (stereo not drawn) [AMSO, allyl methyl sulfoxide]
- metabolite concentration in urine (U VII, 1 h post (1.08 h)): 239.4 µg/kg
- metabolite concentration in urine, creatinine-normalized (U VII, 1 h post (1.08 h)): 148.3 µg/mmol creatinine
- metabolite concentration in urine (U VII, 2 h post (2.00 h)): 158.6 µg/kg
- metabolite concentration in urine, creatinine-normalized (U VII, 2 h post (2.00 h)): 162.5 µg/mmol creatinine
- metabolite concentration in urine (U VII, 4 h post (4.00 h)): 145.1 µg/kg
- metabolite concentration in urine, creatinine-normalized (U VII, 4 h post (4.00 h)): 90.0 µg/mmol creatinine
- metabolite concentration in urine (U VII, 6 h post (6.00 h)): 123.7 µg/kg
- metabolite concentration in urine, creatinine-normalized (U VII, 6 h post (6.00 h)): 40.0 µg/mmol creatinine
- metabolite concentration in urine (U VII, 8 h post (8.00 h)): 58.6 µg/kg
- metabolite concentration in urine, creatinine-normalized (U VII, 8 h post (8.00 h)): 30.1 µg/mmol creatinine
- metabolite concentration in urine (U VII, 24 h post (24.00 h)): 5.9 µg/kg
- metabolite concentration in urine, creatinine-normalized (U VII, 24 h post (24.00 h)): 1.6 µg/mmol creatinine
- metabolite concentration in urine (U VII, pre (-0.25 h)): 3.4 µg/kg
- metabolite concentration in urine, creatinine-normalized (U VII, pre (-0.25 h)): 1.0 µg/mmol creatinine
- metabolite concentration in urine (U VIII, 0.5 h post (0.52 h)): 184.6 µg/kg
- metabolite concentration in urine, creatinine-normalized (U VIII, 0.5 h post (0.52 h)): 234.8 µg/mmol creatinine
- metabolite concentration in urine (U VIII, 1 h post (1.08 h)): 423.9 µg/kg
- metabolite concentration in urine, creatinine-normalized (U VIII, 1 h post (1.08 h)): 255.5 µg/mmol creatinine
- metabolite concentration in urine (U VIII, 2 h post (2.08 h)): 293.8 µg/kg
- metabolite concentration in urine, creatinine-normalized (U VIII, 2 h post (2.08 h)): 277.9 µg/mmol creatinine
- metabolite concentration in urine (U VIII, 4 h post (4.07 h)): 239.2 µg/kg
- metabolite concentration in urine, creatinine-normalized (U VIII, 4 h post (4.07 h)): 113.3 µg/mmol creatinine
- metabolite concentration in urine (U VIII, 6 h post (6.08 h)): 197.8 µg/kg
- metabolite concentration in urine, creatinine-normalized (U VIII, 6 h post (6.08 h)): 52.6 µg/mmol creatinine
- metabolite concentration in urine (U VIII, 8 h post (7.90 h)): 109.7 µg/kg
- metabolite concentration in urine, creatinine-normalized (U VIII, 8 h post (7.90 h)): 40.0 µg/mmol creatinine
- metabolite concentration in urine (U VIII, 24 h post (23.83 h)): 26.2 µg/kg
- metabolite concentration in urine, creatinine-normalized (U VIII, 24 h post (23.83 h)): 9.9 µg/mmol creatinine
- metabolite concentration in urine (U VIII, pre (-0.33 h)): 61.4 µg/kg
- metabolite concentration in urine, creatinine-normalized (U VIII, pre (-0.33 h)): 13.8 µg/mmol creatinine
- metabolite concentration in urine (U X, 0.5 h post (0.53 h)): 73.7 µg/kg
- metabolite concentration in urine, creatinine-normalized (U X, 0.5 h post (0.53 h)): 38.2 µg/mmol creatinine
- metabolite concentration in urine (U X, 1 h post (1.03 h)): 77.0 µg/kg
- metabolite concentration in urine, creatinine-normalized (U X, 1 h post (1.03 h)): 97.5 µg/mmol creatinine
- metabolite concentration in urine (U X, 2 h post (2.03 h)): 68.8 µg/kg
- metabolite concentration in urine, creatinine-normalized (U X, 2 h post (2.03 h)): 102.4 µg/mmol creatinine
- metabolite concentration in urine (U X, 4 h post (3.85 h)): 68.2 µg/kg
- metabolite concentration in urine, creatinine-normalized (U X, 4 h post (3.85 h)): 51.9 µg/mmol creatinine
- metabolite concentration in urine (U X, 6 h post (5.80 h)): 68.6 µg/kg
- metabolite concentration in urine, creatinine-normalized (U X, 6 h post (5.80 h)): 29.1 µg/mmol creatinine
- metabolite concentration in urine (U X, 8 h post (7.75 h)): 37.9 µg/kg
- metabolite concentration in urine, creatinine-normalized (U X, 8 h post (7.75 h)): 16.3 µg/mmol creatinine
- metabolite concentration in urine (U X, 24 h post (23.97 h)): 23.9 µg/kg
- metabolite concentration in urine, creatinine-normalized (U X, 24 h post (23.97 h)): 2.2 µg/mmol creatinine
- metabolite concentration in urine (U X, pre (-0.07 h)): < LOD^2
- metabolite concentration in urine, creatinine-normalized (U X, pre (-0.07 h)): < LOD^2
- metabolite concentration in urine (U XI, 0.5 h post (0.50 h)): 64.0 µg/kg
- metabolite concentration in urine, creatinine-normalized (U XI, 0.5 h post (0.50 h)): 77.5 µg/mmol creatinine
- metabolite concentration in urine (U XI, 1 h post (1.02 h)): 106.2 µg/kg
- metabolite concentration in urine, creatinine-normalized (U XI, 1 h post (1.02 h)): 133.3 µg/mmol creatinine
- metabolite concentration in urine (U XI, 2 h post (2.00 h)): 102.2 µg/kg
- metabolite concentration in urine, creatinine-normalized (U XI, 2 h post (2.00 h)): 133.3 µg/mmol creatinine
- metabolite concentration in urine (U XI, pre (-0.08 h)): 3.8 µg/kg
- metabolite concentration in urine, creatinine-normalized (U XI, pre (-0.08 h)): 1.1 µg/mmol creatinine
- metabolite concentration in urine (U XII, 0.5 h post (0.48 h)): 83.8 µg/kg
- metabolite concentration in urine, creatinine-normalized (U XII, 0.5 h post (0.48 h)): 11.2 µg/mmol creatinine
- metabolite concentration in urine (U XII, 1 h post (1.03 h)): 82.1 µg/kg
